Assays:
IKZF2 = IKZF2 (Homo sapiens, UniProt Q96SW2+Q9UKS7); experiment: HEK293 HiBiT in vitro degradation of IKZF2; assay type: cell-based; design: expressed in transfected cells; settings: for DC50 / IKZF2 Dmax: HEK293 HiBiT; for DC50: 18-24 hr incubation, normalized to DMSO control, read-out: IKZF2 EC50; for IKZF2 Dmax / Dmax: maximum degradation at the highest concentration tested; for Dmax: HEK293, HEK293 HiBiT
Method: (§1) In vitro degradation of IKZF1, IKZF2, and SALL4 was measured using HiBiT protein tagging and detection technology (Promega).
(§2) HiBit technology was used to develop the quantitative assays to measure the cellular IKZFs level by tagging an 11 amino acid HiBit peptides […] to the protein of interest. Reporter plasmids were generated by fusing a linker sequence ([…]) followed by the HiBit tag at the C-terminus of IKZF1, IKZF2, and SALL4. The fusion fragments were subsequently cloned into pcDNA5 pcDNA™5/FRT/TO plasmids (Thermo Fisher, cat #V652020) downstream of the tetracycline operator. The resulting plasmids were co-transfected with pOG44 Flp-Recombinase Expression Vector (Thermo Fisher, cat #V600520) into Flp-In™ T-REx HEK293 line (Thermo Fisher, cat #R78077) and a stable cell pool was selected by adding 100 µg/ml of Hygromycin (Thermo Fisher, cat #10687010). The reporter cell enabled Tet-On inducible reporter expression from a single copy of the integrated gene.
(§3) On Day 1, Cells were grown to ˜80% confluency in tissue culture medium (DMEM Glutamax (Gibco10569), 10% Tet free FBS (Takara 631106), and PenStrep Glutamin (Gibco 10378)) in tissue culture flasks. Doxycycline was then added to a final concentration of […] to induce reporter expression at 37° C. overnight.
(§4) On Day 2, 125 nL of serially-diluted solution of testing compounds were dispensed into 384-well white solid assay plates via ECHO acoustic liquid handler. Cells were lifted by 0.25% Trypsin (Gibco 25200) then pelleted by centrifugation (Beckman Avanti J-E) at 500×g for 5 min. Cell pellets were resuspended in TC medium at the concentration of 3e5/mL and 25 μL of cell suspension were added into each well of compound-spotted plates. The plates were returned to a 37° C. incubator overnight (18-24 hr).
(§5) On Day 3, assay plates were removed from the tissue culture incubator and 25 μL of Nano-Glo lytic detection system (Promega, cat #N3030) was added to each well. Plates were incubated at r.t. for 3 min with shaking, and luminescence was read using an Envision reader (Perkin Elmer).
(§6) To assess the IKZF1, IKZF2, and SALL4 degrader potential of exemplified compounds of this disclosure and certain Reference Compounds EC50 and Dmax values were determined for the compounds of Examples 1 to 383 and Reference Compounds A-1, B-1, B-2, B-3, B-4, and C-1 in the HiBiT assays. Asterisks (*) indicate examples for which the data shown represents an average of n≥3.

IKZF1 = biological target: T1, IKZF1 (Homo sapiens, UniProt Q13422+Q96SW2); experiment: HEK293 HiBiT in vitro degradation of IKZF1; assay type: cell-based; settings: for DC50 / IKZF1 Dmax: HEK293 HiBiT; for DC50: 18-24 hr incubation, normalized to DMSO control, read-out: IKZF1 EC50; for IKZF1 Dmax / Dmax: maximum degradation at the highest concentration tested; for Dmax: HEK293, HEK293 HiBiT
T1 construct: expressed in transfected cells
Method: as §1, §2, §3, §4, §5, §6

T1 sequence (Q13422 whole entry): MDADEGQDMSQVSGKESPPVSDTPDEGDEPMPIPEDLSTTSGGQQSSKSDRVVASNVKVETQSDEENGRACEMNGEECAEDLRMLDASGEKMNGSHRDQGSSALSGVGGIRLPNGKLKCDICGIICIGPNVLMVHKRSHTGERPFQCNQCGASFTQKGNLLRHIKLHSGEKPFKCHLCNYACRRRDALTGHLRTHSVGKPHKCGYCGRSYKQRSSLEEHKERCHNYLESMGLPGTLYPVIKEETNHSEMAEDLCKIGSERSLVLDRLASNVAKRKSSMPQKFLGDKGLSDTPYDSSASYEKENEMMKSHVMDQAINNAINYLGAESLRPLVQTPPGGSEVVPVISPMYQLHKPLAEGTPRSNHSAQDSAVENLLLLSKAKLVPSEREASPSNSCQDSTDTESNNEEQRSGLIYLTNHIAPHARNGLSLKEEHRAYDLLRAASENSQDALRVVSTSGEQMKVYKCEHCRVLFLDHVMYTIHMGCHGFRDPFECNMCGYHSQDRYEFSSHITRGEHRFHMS
T1 sequence (Q96SW2 whole entry): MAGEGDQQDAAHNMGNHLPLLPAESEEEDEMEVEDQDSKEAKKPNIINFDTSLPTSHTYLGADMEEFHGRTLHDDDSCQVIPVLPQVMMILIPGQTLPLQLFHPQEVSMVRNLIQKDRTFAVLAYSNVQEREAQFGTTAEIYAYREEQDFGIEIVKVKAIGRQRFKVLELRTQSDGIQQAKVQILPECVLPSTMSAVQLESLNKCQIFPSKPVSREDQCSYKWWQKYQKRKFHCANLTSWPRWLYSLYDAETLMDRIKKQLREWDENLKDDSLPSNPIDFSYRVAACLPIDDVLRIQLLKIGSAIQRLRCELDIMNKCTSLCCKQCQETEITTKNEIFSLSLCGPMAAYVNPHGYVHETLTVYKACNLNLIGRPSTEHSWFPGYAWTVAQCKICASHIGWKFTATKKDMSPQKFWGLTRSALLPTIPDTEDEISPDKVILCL
T1 sequence (Q16531 whole entry partner): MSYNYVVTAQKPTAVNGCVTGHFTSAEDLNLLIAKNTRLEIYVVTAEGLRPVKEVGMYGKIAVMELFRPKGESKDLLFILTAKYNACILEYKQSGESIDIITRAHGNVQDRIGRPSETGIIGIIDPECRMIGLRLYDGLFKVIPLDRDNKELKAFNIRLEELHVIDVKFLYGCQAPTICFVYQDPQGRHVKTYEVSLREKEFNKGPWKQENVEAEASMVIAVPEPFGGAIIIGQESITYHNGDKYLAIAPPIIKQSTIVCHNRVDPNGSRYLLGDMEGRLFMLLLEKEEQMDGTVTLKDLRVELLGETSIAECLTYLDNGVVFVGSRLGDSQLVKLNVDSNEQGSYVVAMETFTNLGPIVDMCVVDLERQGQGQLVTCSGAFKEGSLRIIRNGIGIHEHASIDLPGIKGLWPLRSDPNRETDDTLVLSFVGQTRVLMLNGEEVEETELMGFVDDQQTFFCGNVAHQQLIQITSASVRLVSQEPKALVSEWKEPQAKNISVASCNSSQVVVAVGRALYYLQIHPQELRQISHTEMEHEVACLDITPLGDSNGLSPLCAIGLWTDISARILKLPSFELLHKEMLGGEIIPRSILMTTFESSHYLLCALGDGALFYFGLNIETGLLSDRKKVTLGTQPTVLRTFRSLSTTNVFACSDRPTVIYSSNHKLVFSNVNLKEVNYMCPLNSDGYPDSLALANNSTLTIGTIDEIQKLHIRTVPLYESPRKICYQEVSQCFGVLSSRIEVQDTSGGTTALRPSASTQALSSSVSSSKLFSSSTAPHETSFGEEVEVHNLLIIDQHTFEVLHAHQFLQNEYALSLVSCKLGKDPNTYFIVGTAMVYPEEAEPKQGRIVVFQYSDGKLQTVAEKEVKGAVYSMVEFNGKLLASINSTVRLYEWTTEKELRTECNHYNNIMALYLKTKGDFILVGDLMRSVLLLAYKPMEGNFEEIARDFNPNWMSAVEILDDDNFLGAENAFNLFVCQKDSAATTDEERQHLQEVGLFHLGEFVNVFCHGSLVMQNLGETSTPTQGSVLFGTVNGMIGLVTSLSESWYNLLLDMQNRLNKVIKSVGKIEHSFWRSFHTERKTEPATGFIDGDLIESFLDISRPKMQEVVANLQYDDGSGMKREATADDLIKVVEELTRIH
IKZF2, sequence (Q9UKS7 1-500 isoform Q9UKS7-2): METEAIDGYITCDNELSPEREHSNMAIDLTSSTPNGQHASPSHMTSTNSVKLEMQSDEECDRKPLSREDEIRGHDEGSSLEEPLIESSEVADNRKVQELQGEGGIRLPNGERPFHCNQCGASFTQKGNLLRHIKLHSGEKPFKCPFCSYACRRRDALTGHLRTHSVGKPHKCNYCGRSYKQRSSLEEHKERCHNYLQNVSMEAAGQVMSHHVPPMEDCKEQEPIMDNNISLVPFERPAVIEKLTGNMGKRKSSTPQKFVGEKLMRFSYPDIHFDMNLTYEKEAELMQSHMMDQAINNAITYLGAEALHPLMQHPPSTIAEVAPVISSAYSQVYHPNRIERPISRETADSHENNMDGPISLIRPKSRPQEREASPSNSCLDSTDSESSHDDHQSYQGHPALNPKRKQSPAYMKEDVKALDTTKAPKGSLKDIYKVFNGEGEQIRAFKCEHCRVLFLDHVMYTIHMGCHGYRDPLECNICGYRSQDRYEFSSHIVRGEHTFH
IKZF2, sequence (Q96SW2 whole entry): as the sequence (Q96SW2 whole entry) above
IKZF2, sequence (Q16531 whole entry partner): as the sequence (Q16531 whole entry partner) above

SMILES | DC50 (IKZF2) [nM] | IKZF2 Dmax (IKZF2) [%] | DC50 (IKZF1) [nM] | Dmax (IKZF2) [%] | IKZF1 Dmax (IKZF1) [%] | Dmax (IKZF1) [%]
O=C1CCC(N2Cc3cc(C[C@H]4CCCC[C@@H]4NC4CCCOC4)ccc3C2=O)C(=O)N1 (single isomer, unassigned) [Example 261] | 6 | 96 | > 1000 |  |  | 
O=C1CCC(N2Cc3c(ccc(C[C@H]4OCCC[C@@H]4NC4CCCOC4)c3F)C2=O)C(=O)N1 (single isomer, unassigned) [Example 262] | 72 |  | > 1000 | 85 |  | 
O=C1CCC(N2Cc3c(ccc(C[C@H]4OCCC[C@@H]4NC4CCCOC4)c3F)C2=O)C(=O)N1 (single isomer, unassigned) [Example 263] | 95 | 85 | > 1000 |  |  | 
COCC1CCC(N[C@H]2CCCO[C@@H]2Cc2ccc3c(c2F)CN(C2CCC(=O)NC2=O)C3=O)CC1 (single isomer, unassigned) [Example 264] | 6 |  | > 1000 | 96 |  | 
N#CC1CCC(N[C@H]2CCCC[C@@H]2Cc2ccc3c(c2)CN(C2CCC(=O)NC2=O)C3=O)CC1 (single isomer, unassigned) [Example 268] | 6 | 98 | 76 |  | 62 | 
N#CCC1CCC(N[C@H]2CCCC[C@@H]2Cc2ccc3c(c2)CN(C2CCC(=O)NC2=O)C3=O)CC1 (single isomer, unassigned) [Example 269] | 3 |  | 266 | 96 |  | 40
N#CCC1CCC(N[C@H]2CCCC[C@@H]2Cc2ccc3c(c2)CN(C2CCC(=O)NC2=O)C3=O)CC1 (single isomer, unassigned) [Example 270] | 8 | 98 | 179 |  | 22 | 
O=C1CCC(N2Cc3cc(C[C@H]4CCCC[C@@H]4NC4CCC5(CC4)CC5(F)F)ccc3C2=O)C(=O)N1 (single isomer, unassigned) [Example 271] | 2 |  | 45 | 98 |  | 44
CC1(C)OCCC1N[C@H]1CCCC[C@@H]1Cc1ccc2c(c1)CN(C1CCC(=O)NC1=O)C2=O (single isomer, unassigned) [Example 273] | 23 |  | > 1000 | 93 |  | 
CC1(C)OCCC1N[C@H]1CCCC[C@@H]1Cc1ccc2c(c1)CN(C1CCC(=O)NC1=O)C2=O (single isomer, unassigned) [Example 274] | 12 | 97 | 102 |  |  | 35
CC1(C)CCCC(N[C@H]2CCCC[C@@H]2Cc2ccc3c(c2)CN(C2CCC(=O)NC2=O)C3=O)C1 (single isomer, unassigned) [Example 275] | 4 |  | > 1000 | 96 |  | 
CC1(C)CCCC(N[C@H]2CCCC[C@@H]2Cc2ccc3c(c2)CN(C2CCC(=O)NC2=O)C3=O)C1 (single isomer, unassigned) [Example 276] | 3 | 97 | > 1000 |  |  | 
COC1CCC(N[C@H]2CCCC[C@@H]2Cc2ccc3c(c2)CN(C2CCC(=O)NC2=O)C3=O)CC1 (single isomer, unassigned) [Example 278] | 4 | 98 | 125 |  | 37 | 
CC1CCC(N[C@H]2CCCC[C@@H]2Cc2ccc3c(c2)CN(C2CCC(=O)NC2=O)C3=O)CC1 (single isomer, unassigned) [Example 279] | 3 |  | 51 | 95 |  | 30
CC1CCC(N[C@H]2CCCC[C@@H]2Cc2ccc3c(c2)CN(C2CCC(=O)NC2=O)C3=O)CC1 (single isomer, unassigned) [Example 280] | 3 | 98 | 70 |  | 29 | 
O=C1CCC(N2Cc3c(ccc(C[C@H]4OCCC[C@@H]4NC4CCC(C(F)F)CC4)c3F)C2=O)C(=O)N1 (single isomer, unassigned) [Example 282] | 7 |  | > 1000 | 95 |  | 
CC(C)OC1CCC(N[C@H]2CCCO[C@@H]2Cc2ccc3c(c2F)CN(C2CCC(=O)NC2=O)C3=O)CC1 (single isomer, unassigned) [Example 284] | 5 |  | > 1000 | 97 |  | 
CC(C)OC1CCC(N[C@H]2CCCO[C@@H]2Cc2ccc3c(c2F)CN(C2CCC(=O)NC2=O)C3=O)CC1 (single isomer, unassigned) [Example 285] | 8 | 94 | 124 |  |  | 37
O=C1CCC(N2Cc3cc(C[C@H]4CCCC[C@@H]4NC4CCC45COC5)ccc3C2=O)C(=O)N1 (single isomer, unassigned) [Example 286] | 27 |  | 223 | 96 |  | 33
CCC(C)N[C@H]1CCCO[C@@H]1Cc1ccc2c(c1F)CN(C1CCC(=O)NC1=O)C2=O (single isomer, unassigned) [Example 292] | 7 |  | > 1000 | 94 |  | 
CCC(C)N[C@H]1CCCO[C@@H]1Cc1ccc2c(c1F)CN(C1CCC(=O)NC1=O)C2=O (single isomer, unassigned) [Example 293] | 8 | 94 | > 1000 |  |  | 
CCC(C)N[C@H]1CCCC[C@@H]1Cc1ccc2c(c1F)CN(C1CCC(=O)NC1=O)C2=O (single isomer, unassigned) [Example 294] | 2 |  | 912 | 97 |  | 59
CCC(C)N[C@H]1CCCC[C@@H]1Cc1ccc2c(c1F)CN(C1CCC(=O)NC1=O)C2=O (single isomer, unassigned) [Example 295] | 1 | 97 | 283 |  | 43 | 
O=C1CCC(N2Cc3c(ccc(C[C@H]4OCCC[C@@H]4NC4CCOC4)c3F)C2=O)C(=O)N1 (single isomer, unassigned) [Example 296] | 105 |  | > 1000 | 86 |  | 
O=C1CCC(N2Cc3c(ccc(C[C@H]4OCCC[C@@H]4NC4CCOC4)c3F)C2=O)C(=O)N1 (single isomer, unassigned) [Example 297] | 101 | 84 | > 1000 |  |  | 
CC(N[C@H]1CCCO[C@@H]1Cc1ccc2c(c1F)CN(C1CCC(=O)NC1=O)C2=O)C1CCOCC1 (single isomer, unassigned) [Example 298] | 55 | 76 | > 1000 |  |  | 
CCC(C)N[C@H]1CCCC[C@@H]1Cc1ccc2c(c1)CN(C1CCC(=O)NC1=O)C2=O (single isomer, unassigned) [Example 300] | 4 | 97 | > 1000 |  |  | 
COC1(C)CCC(N[C@H]2CCCO[C@@H]2Cc2ccc3c(c2F)CN(C2CCC(=O)NC2=O)C3=O)CC1 (single isomer, unassigned) [Example 317] | 6 | 94 | 243 |  |  | 33
O=C1CCC(N2Cc3c(ccc(C[C@H]4OCCC[C@@H]4NC4CCC(OC(F)F)CC4)c3F)C2=O)C(=O)N1 (single isomer, unassigned) [Example 326] | 7 |  | 261 | 95 |  | 40

From US11897862B2 (Gilead Sciences, Inc., priority 2022, dated 2024)
